Test results from patent publication US11053204B2, “Pyrimidinyloxy benzene derivatives as herbicides” (FMC Corporation, priority 2015, dated 2021).

Experiments:
Type in all cases: in vivo
[1] = test system: oat, wild (wild oat Avena fatua); assay: Test C preemergence, plant response rating
[2] = test system: kochia (Kochia scoparia); assay: Test C preemergence, plant response rating
[3] = test system: pigweed, palmer (palmer pigweed, Amaranthus palmeri); assay: Test C preemergence, plant response rating
[4] = test system: wild poinsettia (Euphorbia heterophylla); assay: Test C preemergence, plant response rating
[5] = test system: johnsongrass (Sorghum halepense); assay: Test C postemergence, plant response rating; settings: for Johnsongrass plant response rating: scale 0 to 100 (0 no effect, 100 complete control)
Method in brief: (§1)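 Greenhouse plants rated visually against untreated controls 13–15 d after treatment, scale 0 = no effect to 100 = complete control. Postemergence sprays went onto potted plants 2–18 cm tall (1–4 leaves); preemergence sprays onto soil freshly sown in loam–sand or silt loam, chemicals formulated in non-phytotoxic solvent with surfactant.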

[6] = test system: geranium, cutleaf (cutleaf geranium, Geranium dissectum); assay: Test C postemergence, plant response rating; settings: for Geranium, Cutleaf plant response rating: scale 0 to 100 (0 no effect, 100 complete control)
Method in brief: as §1

[7] = test system: Canada thistle (Cirsium arvense); assay: Test C postemergence, plant response rating; settings: for Canada Thistle plant response rating: scale 0 to 100 (0 no effect, 100 complete control)
Method in brief: as §1

[8] = test system: field violet (Viola arvensis); assay: Test C postemergence, plant response rating; settings: for Field Violet plant response rating: scale 0 to 100 (0 no effect, 100 complete control)
Method in brief: as §1

[9] = test system: wild poinsettia (Euphorbia heterophylla); assay: Test C postemergence, plant response rating; settings: for Poinsettia, Wild plant response rating: scale 0 to 100 (0 no effect, 100 complete control)
Method in brief: as §1

[10] = test system: wild mustard (Sinapis arvensis); assay: Test C postemergence, plant response rating; settings: for Mustard, Wild plant response rating: scale 0 to 100 (0 no effect, 100 complete control)
Method in brief: as §1

[11] = test system: surinam grass (Brachiaria decumbens); assay: Test C postemergence, plant response rating
Method in brief: as §1

[12] = test system: field poppy (Papaver rhoeas); assay: Test C postemergence, plant response rating; settings: for Field Poppy plant response rating: scale 0 to 100 (0 no effect, 100 complete control)
Method in brief: as §1

[13] = test system: nightshade (eastern black nightshade, Solanum ptycanthum); assay: Test C postemergence, plant response rating; settings: for Nightshade plant response rating: scale 0 to 100 (0 no effect, 100 complete control)
Method in brief: as §1

[14] = test system: buckwheat, wild (wild buckwheat, Polygonum convolvulus); assay: Test C postemergence, plant response rating; settings: for Buckwheat, Wild plant response rating: scale 0 to 100 (0 no effect, 100 complete control)
Method in brief: as §1

[15] = test system: windgrass (Apera spica-venti); assay: Test C postemergence, plant response rating
Method in brief: as §1

[16] = test system: speedwell (bird's-eye speedwell, Veronica persica); assay: Test C postemergence, plant response rating; settings: for Speedwell plant response rating: scale 0 to 100 (0 no effect, 100 complete control)
Method in brief: as §1

[17] = test system: pigweed, palmer (palmer pigweed, Amaranthus palmeri); assay: Test C postemergence, plant response rating; settings: for Pigweed, Palmer plant response rating: scale 0 to 100 (0 no effect, 100 complete control)
Method in brief: as §1

[18] = test system: johnsongrass (Sorghum halepense); assay: Test C preemergence, plant response rating
[19] = test system: windgrass (Apera spica-venti); assay: Test C preemergence, plant response rating
[20] = 125 g ai/ha, scale 0 to 100 (0 no effect, 100 complete control)

O=C(CCCC(F)(F)F)c1c(Oc2ncc(Cl)cn2)cccc1C(F)(F)F [Compound 125]
0: Plant response rating, Oat, Wild ([1]; 31 g ai/ha, scale 0 to 100) | Plant response rating, Poinsettia, Wild ([4]; 31 g ai/ha, scale 0 to 100)
90: Plant response rating, Kochia ([2]; 62 g ai/ha, scale 0 to 100) | Canada Thistle plant response rating ([7]; 62 g ai/ha) | Canada Thistle plant response rating ([7]; 125 g ai/ha) | Plant response rating, Field Violet ([8]; 16 g ai/ha, scale of 0 to 100) | Plant response rating, Mustard, Wild ([10]; 16 g ai/ha, scale of 0 to 100) | Plant response rating, Field Poppy ([12]; 16 g ai/ha, scale of 0 to 100) | Nightshade plant response rating ([13]; 125 g ai/ha) | Plant response rating, Windgrass ([19]; 62 g ai/ha, scale 0 to 100)
65: Plant response rating, Poinsettia, Wild ([9]; 16 g ai/ha, scale of 0 to 100) | Plant response rating, Poinsettia, Wild ([9]; 31 g ai/ha, scale 0 to 100) | Plant response rating, Buckwheat, Wild ([14]; 31 g ai/ha, scale 0 to 100)
25: Plant response rating, Poinsettia, Wild ([4]; 62 g ai/ha, scale 0 to 100) | Johnsongrass plant response rating ([5]; 125 g ai/ha) | Plant response rating, Geranium, Cutleaf ([6]; 16 g ai/ha, scale of 0 to 100)
75: Poinsettia, Wild plant response rating ([9]; 62 g ai/ha) | Plant response rating, Nightshade ([13]; 31 g ai/ha, scale 0 to 100) | Buckwheat, Wild plant response rating ([14]; 62 g ai/ha) | Plant response rating, Johnsongrass ([18]; 125 g ai/ha, scale of 0 to 100)
40: Plant response rating, Pigweed, Palmer ([17]; 16 g ai/ha, scale of 0 to 100)
30: Plant response rating, Poinsettia, Wild ([4]; 125 g ai/ha, scale of 0 to 100) | Plant response rating, Geranium, Cutleaf ([6]; 31 g ai/ha, scale 0 to 100)
95: Plant response rating, Mustard, Wild ([10]; 31 g ai/ha, scale 0 to 100) | Plant response rating, Field Poppy ([12]; 31 g ai/ha, scale 0 to 100)
35: Windgrass plant response rating [15, 20]
50: Plant response rating, Nightshade ([13]; 16 g ai/ha, scale of 0 to 100)
15: Plant response rating, Windgrass ([15]; 31 g ai/ha, scale 0 to 100)
20: Surinam Grass plant response rating [11, 20]
5: Plant response rating, Johnsongrass ([5]; 16 g ai/ha, scale of 0 to 100) | Plant response rating, Johnsongrass ([5]; 31 g ai/ha, scale 0 to 100) | Plant response rating, Surinam Grass ([11]; 16 g ai/ha, scale of 0 to 100) | Plant response rating, Johnsongrass ([18]; 31 g ai/ha, scale 0 to 100)
60: Plant response rating, Kochia ([2]; 31 g ai/ha, scale 0 to 100) | Plant response rating, Johnsongrass ([18]; 62 g ai/ha, scale 0 to 100)
70: Plant response rating, Buckwheat, Wild ([14]; 16 g ai/ha, scale of 0 to 100) | Plant response rating, Speedwell ([16]; 31 g ai/ha, scale 0 to 100)
100: Plant response rating, Pigweed, Palmer ([3]; 31 g ai/ha, scale 0 to 100) | Plant response rating, Pigweed, Palmer ([3]; 62 g ai/ha, scale 0 to 100) | Plant response rating, Pigweed, Palmer ([3]; 125 g ai/ha, scale of 0 to 100) | Mustard, Wild plant response rating ([10]; 125 g ai/ha) | Field Poppy plant response rating ([12]; 62 g ai/ha) | Field Poppy plant response rating ([12]; 125 g ai/ha) | Plant response rating, Windgrass ([19]; 125 g ai/ha, scale of 0 to 100)
10: Plant response rating, Oat, Wild ([1]; 62 g ai/ha, scale 0 to 100) | Johnsongrass plant response rating ([5]; 62 g ai/ha) | Plant response rating, Surinam Grass ([11]; 31 g ai/ha, scale 0 to 100) | Plant response rating, Windgrass ([15]; 16 g ai/ha, scale of 0 to 100)
98: Plant response rating, Kochia ([2]; 125 g ai/ha, scale of 0 to 100) | Plant response rating, Field Violet ([8]; 31 g ai/ha, scale 0 to 100) | Field Violet plant response rating ([8]; 62 g ai/ha) | Field Violet plant response rating ([8]; 125 g ai/ha) | Mustard, Wild plant response rating ([10]; 62 g ai/ha) | Buckwheat, Wild plant response rating ([14]; 125 g ai/ha) | Speedwell plant response rating ([16]; 62 g ai/ha) | Speedwell plant response rating ([16]; 125 g ai/ha)
85: Plant response rating, Canada Thistle ([7]; 31 g ai/ha, scale 0 to 100) | Poinsettia, Wild plant response rating ([9]; 125 g ai/ha) | Nightshade plant response rating ([13]; 62 g ai/ha) | Plant response rating, Pigweed, Palmer ([17]; 31 g ai/ha, scale 0 to 100) | Pigweed, Palmer plant response rating ([17]; 125 g ai/ha) | Plant response rating, Windgrass ([19]; 31 g ai/ha, scale 0 to 100)
80: Plant response rating, Canada Thistle ([7]; 16 g ai/ha, scale of 0 to 100) | Pigweed, Palmer plant response rating ([17]; 62 g ai/ha)
55: Plant response rating, Oat, Wild ([1]; 125 g ai/ha, scale of 0 to 100) | Geranium, Cutleaf plant response rating ([6]; 62 g ai/ha) | Geranium, Cutleaf plant response rating ([6]; 125 g ai/ha) | Plant response rating, Speedwell ([16]; 16 g ai/ha, scale of 0 to 100)
